Source: patent US11542515B2, “Methods and compositions for increasing efficiency of targeted gene modification using oligonucleotide-mediated gene repair” (CIBUS US LLC, priority 2016, dated 2023)
Entries after “also recorded” stand apart in the source; their conditions may differ. In the oligonucleotide strings, read from the 5' end, every base follows the letter of its sugar. An asterisk marks phosphorothioate; unmarked linkages are phosphodiester. Other units and linkages are bracketed, terminal groups are in braces. A string of capitals states the bases alone. d = 2'-deoxy (DNA)

Columns and labels:
bfp gene = experiment: BFP to GFP conversion by CRISPR plasmid plus GRON in BFP transgenic protoplasts (flow cytometry); format: cell-based, Arabidopsis thaliana; conditions: 72 h
Method: BFP transgenic Arabidopsis thaliana protoplasts derived from induced root tissue were seeded on a flat-bottom 96-well plate, at 250,000 cells per well at a cell density of 1×10^7 cells/ml. The CRISPR encoded plasmids contain the mannopine synthase (MAS) promoter driving the Cas9 coding sequence with an rbcSE9 terminator and the Arabidopsis U6 promoter driving the sgRNA with a poly-T10 terminator. The CRISPR plasmids along with GRON were introduced into protoplasts by PEG mediated delivery at a final concentration of 0.05 μg/μl and 0.16 μM respectively. Protoplasts were incubated in the dark at 23° C. for 72 hours, and then they were analyzed by flow cytometer in order to determine the percentage of GFP positive protoplasts within a given treatment.
The CRISPR consists of two components: the plant codon-optimized Streptococcus pyogenes Cas9 (SpCas9) and sgRNA both of which were expressed from the same plasmid. The sgRNA is a fusion of CRISPR RNA (crRNA) and trans-activating crRNA (tracrRNA). The crRNA region contains the spacer sequence used to guide the Cas9 nuclease to the BFP target gene (FIG. 3). 201-mer GRONs targeting BFP with or without wobble bases were used to determine their effect on the rate of BFP to GFP conversion.
(§1) BFP transgenic Arabidopsis thaliana protoplasts derived from induced root tissue were seeded on a flat-bottom 96-well plate, at 250,000 cells per well at a cell density of 1×10^7 cells/ml. […] Protoplasts were incubated in the dark at 23° C. for 72 hours, and then they were analyzed by flow cytometer in order to determine the percentage of GFP positive protoplasts within a given treatment. […]
as §1, with “cytometry” for “cytometer”

flax calli = experiment: Glyphosate tolerance of flax calli (fresh weight); format: cell-based, Linum usitatissimum; conditions: edited callus line Y23 / A23, all glyphosate concentrations tested, p<0.01
Method: (§2) Glyphosate tolerance of calli and regenerated plants was assessed in vitro and in the greenhouse, respectively. Individual calli were cloned by cutting and culturing smaller pieces in fresh regeneration medium to increase callus mass. Calli derived from wild type leaf protoplasts were used as negative control. Calli derived from subcultures of individual callus lines were then pooled and broken up into 0.5-1 mm pieces by blending in liquid MS medium (4.33 g/L MS salts, 3% sucrose and 0.1% Morel and Wetmore vitamins) and 0.25 ml of settled callus pieces was inoculated on regeneration medium containing 0, 0.125, 0.25, 0.5, 1.0 or 2.0 mM glyphosate. Treatments were performed in triplicate, and the experiments were repeated three times. Prior to spray tests, regenerated plants were subjected to a hardening period in a growth chamber (Conviron, Winnipeg, MB) under a 16-h photoperiod with day and night temperatures 21° C. and 18° C. respectively. Hardened plants were transferred to the greenhouse for glyphosate treatment. Wild type control and EPSPS edited plants were sprayed with 10.5 mM or 21.0 mM glyphosate (Roundup Pro, Monsanto). Treatment rates were normalized to a 75.7 ai/A (active ingredient per acre) spray volume to replicate field conditions. […] Plants were evaluated and photographed 6 days after the glyphosate treatment to determine herbicide tolerance. […]

flax plants = experiment: Glyphosate spray test of regenerated flax plants in the greenhouse; format: in vivo, Linum usitatissimum; conditions: 10.5 or 21.0 mM spray, 6 days after treatment
Method: as §2

[1] = test system: blue fluorescent protein (BFP) gene; experiment: BFP to GFP conversion by GRON, with or without zeocin/phleomycin, in BFP transgenic protoplasts (flow cytometry); format: cell-based, Arabidopsis thaliana; conditions: 250 and 1000 μg/ml, 90 min before GRON
Description: Sommer et al., (Mol Biotechnol. 33:115-22, 2006) describes a reporter system for the detection of in vivo gene conversion that relies upon a single nucleotide change to convert between blue and green fluorescence in green fluorescent protein (GFP) variants. This reporter system was adapted for use in the following experiments using Arabidopsis thaliana as a model species in order to assess efficiency of GRON mediated conversion.
In short, for this and the subsequent examples an Arabidopsis thaliana line with multiple copies of a blue fluorescent protein gene was created by methods known to those skilled in the art (see, e.g., Clough and Brent, 1998). […]
The purpose of this series of experiments is to compare the conversion efficiencies of the phosphothioate (PS) labeled GRONs with 3PS moieties at each end of the GRON to 2′-O-Me or “2OMe” in the presence and absence of a member of the bleomycin family, Zeocin™ to induce DNA breaks. […] GRONs were delivered into Arabidopsis thaliana BFP protoplasts by PEG treatment and BFP to GFP conversion was determined at 24 h post treatment by cytometry. […]
Seventy-two h after transfection, cells were analyzed by cytometry using the Attune® Acoustic Focusing cytometer (Applied Biosystems®) with excitation and detection of emission as appropriate for GFP. […]

[2] = test system: blue fluorescent protein (BFP) gene; experiment: as above; format: cell-based, Arabidopsis thaliana
accase gene = experiment: ACCase conversion in rice protoplasts (NGS); format: cell-based, Oryza sativa

## CG2: BFP antisense 41 nb 3PS modified (antisense dG*dC*dT*dGdAdAdGdCdAdCdTdGdCdAdCdGdCdCdGdTdAdGdGdTdGdAdAdGdGdTdGdGdTdCdAdCdGdA*dG*dG*dG)
Bfp gene
  BFP to GFP conversion / editing, comparison in words: more efficacious

## O=C(O)CNCP(=O)(O)O [glyphosate]
Flax calli
  fresh weight of calli with T97I and P101A edits versus wild type calli: significantly higher
Flax plants
  phenotype of wild type plants: wilted and necrotic phenotype typical of glyphosate toxicity
Flax plants; Y23 / A23 plants
  phenotype of plants with the edited EPSPS gene: minimal phenotypic change

## Cc1c(N)nc([C@H](CC(N)=O)NC[C@H](N)C(N)=O)nc1C(=O)N[C@H](C(=O)N[C@H](C)[C@@H](O)[C@H](C)C(=O)N[C@H](C(=O)NCCC1=N[C@@H](c2nc(C(=O)NCCCCN=C(N)N)cs2)CS1)[C@@H](C)O)[C@@H](O[C@@H]1O[C@@H](CO)[C@@H](O)[C@H](O)[C@@H]1O[C@H]1O[C@H](CO)[C@@H](O)[C@H](OC(N)=O)[C@@H]1O)c1cnc[nH]1 [zeocin]
[1]
  effect of antibiotic pre-treatment on BFP to GFP gene editing: increase in BFP to GFP gene editing
[2]; zeocin 1 mg/ml, 90 min on ice prior to PEG treatment with GRON
  effect of zeocin on BFP to GFP conversion: increased BFP to GFP conversion rates

## CG3: BFP sense 41 nb 3PS modified (sense CGCTCGTGACCACCTTCACCTACGGCGTGCAGTGCTTCAGC; linkages s3 o34 s3 (s phosphorothioate, o phosphodiester), sugars by position and methylation of C not given here)
Bfp gene
  BFP to GFP conversion / editing, comparison in words: no statistical difference

## phleomycin [reference compound]
[1]
  effect of antibiotic pre-treatment on BFP to GFP gene editing: increase in BFP to GFP gene editing; also recorded: dose-dependent increase in GFP positive cells
[2]; phleomycin 10 μg/mL, GRON BFP/41, 24 h
  number of GFP positive cells compared to the BFP/41/NT control: no improvement
[2]; phleomycin 1000 μg/mL pre-treatment 90 min, GRON BFP/41, 24 h
  BFP to GFP conversion frequency: 0.14%

## BFP/41/3PS: BFP GRON with three adjacent PS modifications at each end (sense dG*dC*dT*dGdAdAdGdCdAdCdTdGdCdAdCdGdCdCdGdTdAdGdGdTdAdAdAdCdGdTdGdGdTdCdAdCdGdAdGdGdGdT*dG*dG*dG)
Bfp gene
  BFP to GFP conversion / editing, comparison in words: more BFP to GFP precise scarless edits

B1: GRON (SEQ ID NO: 79): Cy3/idC GRON targeting the rice accase gene, Example 21 (nucleic acid)
chain: CTGACCTGAACTTGATCTCAATTAACCCTTGCGGTTCCAGAACATTGCCTTTTGCAGTCCTCTCAGCATAGCACTCAATGCGGTCTGGGTTTATCTTGCTTCCAACGACAACCCAAGCCCCTCCTCGTAGCTCTGCAGCCATGGGAATGTAGACAAAGGCAGGCTGATTGTATGTCCTAAGGTTCTCAACAATAGTCGAGCC
modifications: Cy3 label and idC cap; 5′ CY3/ 3′ 3′DMT dC CPG
Accase gene; CRISPR-Cas plasmid plus GRON, 120 h
  ACCase conversion: 0.026%
Accase gene; GRON only, no CRISPR-Cas, 120 hours
  ACCase conversion: 0.002%
